Patent US20170218375A1, “MORPHOLINOS, MORPHOLINO UPREGULATING, AND ASSOCIATED METHODS” (University of Utah Research Foundation, priority 2011, published 2017)

How the values were obtained:
mbVEGFR2 mRNA = test: Real-time PCR of mbVEGFR2 mRNA after morpholino transfection of HUVECs; type: cell-based, human; details: GAPDH as internal control, compared with DPBS transfected HUVECs
Text: (§1) In addition, two polyadenylation sites (AAUAAA) are found in intron13 (FIG. 1A). […] FIG. 1(a) illustrates a schematic design of anti-sense morpholino oligomers. FIGS. 1(b, c) show the results of mbVEGFR2 and sVEGFR2 mRNA expression quantified by real-time PCR after morpholino transfection. All results are normalized by GAPDH expression and compared with DPBS transfected HUVECs as 1. p: risk factor by two-tail student's t-test. *: p<0.05, **p<0.01, ***p<0.001 compared with DPBS transfected HUVECs; n=6 for all groups; Error bar is ±s.e.m. It is thus concluded that human polyadenylation of sVEGFR2 mRNA occurs in intron13, and thus the present disclosure examines whether disruption of splicing between exon13-exon14 upregulates sVEGFR2.
(§2) It was discovered that VEGFR2_MOe13 downregulates mbVEGFR2 mRNA by 40% (p<0.05), while VEGFR2_MOi13 upregulates mbVEGFR2 mRNA by 2.5-fold (p<0.01) compared with DPBS transfected HUVECs.
(§3) Each morpholino oligomer was purchased from Gene Tools (Philomath, Oreg.). […] The cells were washed three times and fluorescence was detected by a FACScan Analyzer (BD Biosciences, San Jose, Calif.). […]
(§4) cDNAs were synthesized from 400 ng total RNA using Omniscript RT kit (Qiagen, Valencia, Calif.) and Oligo-dT primer(dT20) according to the manufacturer's instructions. Real-time PCR was performed using QuantiTect SYBR Green PCR Kit (Qiagen, Valencia, Calif.) and 1 μl of cDNA. […]

sVEGFR2 mRNA [1] = test: RT-PCR analysis of sVEGFR2 mRNA from HUVECs two days after morpholino transfection; type: cell-based, human
Method: To limit the possibility of genomic contamination, VEGFR2exon10_F (designed in exon10) and VEGFR2_R (designed in intron13) were used for primers to detect sVEGFR2.
(§5) Each morpholino oligomer was purchased from Gene Tools (Philomath, Oreg.). The sequences of each morpholino oligomer and primers for PCR are listed in supplemental Table. HUVECs (Lonza, Walkersville, Md.) were cultured in EBM with EGM SingleQuot Kit supplements and growth factors according to the manufacturer's instructions (Lonza, Walkersville, Md.). MS-1 cells, a mouse endothelial cell line (ATCC, Manassas, Va.) were cultured in 5% FBS/DMEM. Morpholino oligomers were delivered to the nucleus by nucleofection (Amaxa, Gaithersburg, Md.) with a Basic Nucleofector Kit for Primary Mammalian Endothelial Cells (Amaxa, Gaithersburg, Md.) using program A-034 for HUVEC and MS-1 cells. For each nucleofection, 1×10^6 cells were used and plated on a 6-well plate. After 2 days of culture, cells were trypsinized and total RNA was extracted using a RNeasy mini kit (Qiagen, Valencia, Calif.) with DNaseI treatment. Detection of mbVEGFR2 was achieved by flow cytometry. […] The cells were washed three times and fluorescence was detected by a FACScan Analyzer (BD Biosciences, San Jose, Calif.). […]

mbVEGFR2 protein [2] = test: Flow cytometry analysis of mbVEGFR2 protein on cell surfaces of transfected HUVECs; type: cell-based, human; details: flow cytometry three days after nucleofection, DPBS 83.3%
Method: (§6) Next, mbVEGFR2 protein expression by western blot was examined. VEGFR2_MOe13 or a combination of VEGFR2_MOe13 and VEGFR2_MOi13 reduced mbVEGFR2 protein expression compared to DPBS and STD_MO. […] (f) HUVECs stained with only secondary antibody were used as a negative control. […] To confirm sVEGFR2 protein expression, western blot from culture medium of morpholino transfected HUVECs was performed using an antibody recognizing the extracellular domains of VEGFR2 (FIG. 5). […] It is known that mbVEGFR2 can be glycosylated, thus increasing the molecular weight from 150 kD to 230 kD. In addition, sVEGFR2 has been detected at 160 kDa, although it has not reported whether this was derived from alternative polyadenylation or proteolytic cleavage from mbVEGFR2. Based on this information, it is likely that sVEGFR2 protein, upregulted following morpholino treatment, is glycosylated with an observed molecular weight of 150 kDa.
Each morpholino oligomer was purchased from Gene Tools (Philomath, Oreg.). The sequences of each morpholino oligomer and primers for PCR are listed in supplemental Table. HUVECs (Lonza, Walkersville, Md.) were cultured in EBM with EGM SingleQuot Kit supplements and growth factors according to the manufacturer's instructions (Lonza, Walkersville, Md.). […] The cells were washed three times and fluorescence was detected by a FACScan Analyzer (BD Biosciences, San Jose, Calif.). […]

sVEGFR2 mRNA [3] = test: Real-time PCR of sVEGFR2 mRNA after morpholino transfection of HUVECs; type: cell-based, human; details: GAPDH as internal control, compared with DPBS transfected HUVECs, p<0.001
Text: as §1, §2, §3, §4

sVEGFR2 protein = test: Western blot of culture medium of morpholino transfected HUVECs against VEGFR2 extracellular domain; type: cell-based, human; details: three days, antibody to VEGFR2 extracellular domains
Method: as §6
(§7) After nucleofection, cells were cultured in a 75 cm^2 flask for three days without changing the medium. After three days the media was collected and cell debris was removed by centrifugation. Trichloroacetic acid (20% (w/v), Fisher Scientific, Pittsburgh, Pa.) was added to concentrate the supernatant (final concentration of trichloroacetic acid was 10%). Cells were incubated in trichloroacetic acid for 30 minutes on ice and then centrifuged at ×12000 g 4° C. for 5 minutes. […]

sVEGFR2 mRNA [4] = test: Long-range 3'RACE from morpholino transfected HUVECs; type: cell-based, human
Method: To determine the 3′UTR of sVEGFR2 mRNA induced by morpholinos, long-range 3′RACE was performed (FIG. 5C). A strong band (˜1600 bp) was detected from VEGFR2_MOe13 and the combination of VEGFR2_MOe13 and VEGFR2_MOi13 transfected HUVECs. Based on the sequence of this band, sVEGFR2 mRNA utilizes a polyadenylation site located in 1403-1408 nt range of intron13 (FIG. 6B). […] These sequence components are similar to typical polyadenylation signals, which contain a cleavage site 10-35 nt downstream of AAUAAA and a GU-rich region 14-70 nt downstream of AAUAAA. […] Corneal tissue is known to predominantly express sVEGFR2.
cDNA was synthesized from total RNA extracted from morpholino transfected HUVEC using a cloning_R1 (Table 1). PCR was performed using a LongRange PCR Kit (Qiagen, Valencia, Calif.). PCR conditions: 93° C. for 3 minutes, 35 cycles of 93° C. for 15 seconds, 55° C. for 30 seconds and 68° C. for 6 minutes using VEGFR2_F1 and cloning_R2. After 1% agarose gel electrophoresis, specific bands were excised and subjected to DNA sequencing. To determine endogenous 3′UTR of sVEGFR2 mRNA, total RNA extracted from one human cornea which was obtained from the Utah Lions Eye Bank. cDNA was synthesized with the same above method, and PCR was performed using cloning_F(1042-1061) which is designed in human VEGFR2 intron13 and cloning_R2.

mbVEGFR2 protein [5] = test: Western blot for mbVEGFR2 from morpholino transfected HUVECs; type: cell-based, human; details: compared to DPBS and STD_MO
Method: as §6, §7

[6] = system: laser-induced choroidal neovascularization (CNV); test: Laser-induced choroidal neovascularization (CNV) in mouse; type: in vivo; details: 2 μl intravitreously day 1 and day 4: 100 ng/μl moVEGFR2_MOe13, 500 ng/μl anti-mouse VEGF-A IgG, 2 ng/μl SU1498, CNV volume day 7
Method: It was also examined whether moVEGFR2_MOe13 inhibits laser-induced choroidal neovascularization (CNV). Each morpholino or DPBS was injected intravitreously on day 1 and day 4 after laser photocoagulation, and laser CNV volumes were examined on day 7. […] Vessel endothelial cells were stained with Alexa fluor488 conjugated isolectin GS-IB4. […] After photocoagulation, on day 1 and day 4, 2 ul of 100 ng/μl STD_MO, 500 ng/μl Goat IgG (AB-108-C, R&D Systems, Minneapolis, Minn.), 100 ng/μl moVEGFR2_MOe13, 500 ng/μl Goat Anti-mouse VEGF-A IgG (AF-493-NA, R&D Systems, Minneapolis, Minn.) or 2 ng/μl SU1498 (572888, EMD chemicals, Gibbstown, N.J.) was injected intravitreously. On day 7, CNV volumes were measured by confocal microscope. n=14-20 for each group. Risk factors (p-value) were calculated by two-tail student's t-test (*: p<0.05, **p<0.01). Error bar is ±s.e.m.
as §5

For “5′-CCACACGCTctagacacacaaaaag-3′ (antisense CCACACGCTCTAGACACACAAAAAG; all phosphorodiamidate morpholino (PMO)) [VEGFR2_MOi13, antisense morpholino oligomer corresponding to the junction of intron13-exon14 of human VEGFR2]”, the “upregulation of mbVEGFR2 mRNA” value (mbVEGFR2 mRNA; p<0.01) was 2.5 fold, the “detection of sVEGFR2 mRNA by RT-PCR” value (sVEGFR2 mRNA [1]) was “detected” and the mbVEGFR2 positive cells (mbVEGFR2 protein [2]) was 82.5%. For the same compound, the “increase of sVEGFR2 mRNA” value (sVEGFR2 mRNA [3]) was 4.4 fold, the “sVEGFR2 protein in culture medium by western blot” value (sVEGFR2 protein) was “could not detect” and the “3'RACE band (~1600 bp) corresponding to sVEGFR2 mRNA using the polyadenylation site in intron13” value (sVEGFR2 mRNA [4]) was “did not show a strong band”.
In the case of “5′-gatccagaattgtctccctacCTAG-3′ (antisense GATCCAGAATTGTCTCCCTACCTAG; all phosphorodiamidate morpholino (PMO)) [VEGFR2_MOe13, antisense morpholino oligomer corresponding to the junction of exon13-intron13 of human VEGFR2]”, the “downregulation of mbVEGFR2 mRNA” value (mbVEGFR2 mRNA; p<0.05) is reported as 40%, the “detection of sVEGFR2 mRNA by RT-PCR” value (sVEGFR2 mRNA [1]) is reported as “detected” and the mbVEGFR2 positive cells (mbVEGFR2 protein [2]) is reported as 40.7%. For the same compound, the “mbVEGFR2 protein expression by western blot” value (mbVEGFR2 protein [5]) was “reduced”, the “increase of sVEGFR2 mRNA” value (sVEGFR2 mRNA [3]) was 17 fold and the “sVEGFR2 protein in culture medium by western blot” value (sVEGFR2 protein) was 150 kD bands were detected. For the same compound, the “3'RACE band (~1600 bp) corresponding to sVEGFR2 mRNA using the polyadenylation site in intron13” value (sVEGFR2 mRNA [4]) was “strong band”.
In the case of `CC(C)c1cc(/C=C(\C#N)C(=O)NCCCc2ccccc2)cc(C(C)C)c1O` [SU1498, reference compound], the “suppression of CNV compared with anti-VEGF-A IgG and SU1498 (FIG. 9)” value [6] is reported as “inhibitory effects”.
